Reference: patent US8242081B2, “Cell penetrating peptides for intracellular delivery of molecules” (Centre National de la Recherche Scientifique, priority 2005, dated 2012)
Read-outs that look alike come from different tables or passages of the source. Peptide text beside a SMILES is read from it.

What was measured:
[1] = test system: Jurkat, WI-38, HS-68 and HeLa cells; experiment: CADY-2-mediated delivery of p27-derived peptides, cell arrest in G1 by FACS; type: cell-based
Experimental: FIG. 12: The different p27-derived peptides were associated with CADY-2 at a molar ratio of 1/20, since it was determined that at this ratio, the average size of the particle is of about 100-200 nm in diameter. The formulations were obtained in phosphate buffer, using a fixed concentration of peptide of 1 μM. Cell lines were cultured in Dulbecco's Modified Eagle's Medium supplemented with 2 mM glutamine, 1% antibiotics (streptomycin 10'000 μg/ml, penicillin, 10'000 IU/ml) and 10% (w/v) fetal calf serum (FCS), at 37° C. in a humidified atmosphere containing 5% CO2. Cells were synchronized by serum privation during 40 hrs, and cultured in Dulbecco's Modified Eagle's Medium supplemented with 2 mM glutamine, 1% antibiotics. G1 synchronized cells were released upon serum addition, then overlaid with preformed CADY-2/peptide complexes. After 30 min incubation at 37° C., 1 ml of fresh DMEM supplemented with 10% fetal calf serum was added directly to the cells, without removing the overlay of CADY/peptide complexes, and cells were returned to the incubator. The level of cell arrest in G1 was analyzed by FACS 24 hrs after release.

[2] = test system: Human H1299 adenocarcinoma cells; experiment: Effect of p1p27/CADY complexes on tumor growth in vivo, intratumoral injection; parameters: species or system Swiss nude mice; conditions: 5 weeks after injection, control experiments
Experimental: The tumor animal model consists of Swiss nude mice, injected subcutaneously with 2×10^7 Human H1299 adenocarcinoma cells. CADY2/p1p27 complex and free CADY-2 and peptides were injected directly into the tumor (100-300 μg) after 1 and 4 weeks. p1p27/CADY complexes were obtained as described before at a ratio 1/20. Controls were performed by injecting PBS, CADY alone, or naked p1p27 instead of the p1p27/CADY-2 complex. The size of the tumor volume was measured with calipers once a week. Results correspond to the average of 5 different animals.

HS-68 and Hela cells = experiment: Toxicity of CADY variants, MTT assay (Table 1); type: cell-based, human
Experimental: The toxicity of CADY peptides has been investigated on different cell lines. Cells were incubated in the presence of increasing concentrations of CADY (from 0.1 μM to 1 mM) for 12 hrs and cell viability was estimated using MTT assay.
The different CADY variants have been tested on HS-68 and Hela cells.
The lack of toxicity of CADY/cargo complexes can be directly associated to absence of free carrier peptide in the solution (FIG. 4B).

[3] = test system: 5PC3 or Human H1299 adenocarcinoma cells; experiment: Intravenous injection of siRNA/CADY complexes, tumor mouse models; type: in vivo, NCR nude mice; conditions: only one injection, siRNA 10 μg
Experimental: Experiments were performed on two tumor mouse models.
(A) 1×10^6 5PC3 adenocarcinoma cells were injected subcutaneously into the flanks of NCR nude mice (day 1). siRNA/CADY-S complexes were obtained as described before at a ratio 1:20. CADY-S/siRNA complexes were injected intravenously at day 7. The size of the tumor was measured every day. Results correspond to the average of 5 different animals.
(B) 1×10^6 tumor cells expressing luciferase were injected intraperitoneally in the mice (4 to 8 week-old immune competent A/J female mices). Tumors were monitored using in vivo Imaging System (IVIS-Xenogen), which quantified total body bioluminescence after injection of D-luciferin. The tumor cells are visualized on three mice, each representative of one group (siRNA alone, CADY/siRNA complexes, and CADY-S/siRNA complexes).
The in vivo efficiency of CADY-S was then investigated, in order to determine if the cholesterol-modified form of CADY can improve siRNA delivery through intravenous injection and block tumor growth in vivo. Experiments were performed on two tumor mouse models, in which 5PC3 or Human H1299 adenocarcinoma cells were injected subcutaneously into the flanks of NCR nude mice.

[4] = peptide delivered with CADY-2, ratio 1/20, 1 μM peptide, 24 hrs after release

With RVSNGSPSLERMDARQAEHPKPSACRNL [p1p27] the “cell cycle arrest in G1” value ([1]; carrier alone or free peptide) was “no effect”, the “cell cycle arrest in G1” value [1, 4] was “induced a cell cycle arrest in G1” and the “increase of tumor size” value [2] was 5 fold.

With PSLERMDAR [pRXL] the “efficiency compared with published TAT or Pen covalent based strategy” value ([1]; pRXL with CADY strategy) was “at least 2 fold” and the “cell cycle arrest in G1” value [1, 4] was “induced a cell cycle arrest in G1”.

`CC(=O)NCC(=O)N[C@@H](CC(C)C)C(=O)N[C@@H](Cc1c[nH]c2ccccc12)C(=O)N[C@@H](CCCNC(=N)N)C(=O)N[C@@H](C)C(=O)N[C@@H](CC(C)C)C(=O)N[C@@H](Cc1c[nH]c2ccccc12)C(=O)N[C@@H](CCCNC(=N)N)C(=O)N[C@@H](CC(C)C)C(=O)N[C@@H](CC(C)C)C(=O)N[C@@H](CCCNC(=N)N)C(=O)N[C@@H](CO)C(=O)N[C@@H](CC(C)C)C(=O)N[C@@H](Cc1c[nH]c2ccccc12)C(=O)N[C@@H](CCCNC(=N)N)C(=O)N[C@@H](CC(C)C)C(=O)N[C@@H](CC(C)C)C(=O)N[C@@H](Cc1c[nH]c2ccccc12)C(=O)N[C@@H](CCCCN)C(=O)N[C@@H](C)C(=O)NCCSS[C@H]1CC[C@@]2(C)C(=CC[C@H]3[C@@H]4CC[C@H]([C@H](C)CCCC(C)C)[C@@]4(C)CC[C@@H]32)C1` [CADY-S2] (HELM PEPTIDE1{[ac].G.L.W.R.A.L.W.R.L.L.R.S.L.W.R.L.L.W.K.A.[CC(C)CCC[C@@H](C)[C@H]1CC[C@H]2[C@@H]3CC=C4C[C@@H](SSCCN[*:1])CC[C@]4(C)[C@H]3CC[C@]12C]}$$$$V2.0) was tested, and the EC50 (HS-68 and Hela cells; 12 h) was 800 µM.

In the case of “NRTEENVSDGSPNAGSVEQTPKKPGLR [p2p27, p27-derived peptide used as a negative control, reference compound]”, the “cell cycle arrest in G1” value [1, 4] is reported as “no effect”.

With `CC(C)CCC[C@@H](C)[C@H]1CC[C@H]2[C@@H]3CC=C4C[C@@H](OC(=O)NCC(=O)N[C@@H](CC(C)C)C(=O)N[C@@H](Cc5c[nH]c6ccccc56)C(=O)N[C@@H](CCCNC(=N)N)C(=O)N[C@@H](C)C(=O)N[C@@H](CC(C)C)C(=O)N[C@@H](Cc5c[nH]c6ccccc56)C(=O)N[C@@H](CCCNC(=N)N)C(=O)N[C@@H](CC(C)C)C(=O)N[C@@H](CC(C)C)C(=O)N[C@@H](CCCNC(=N)N)C(=O)N[C@@H](CO)C(=O)N[C@@H](CC(C)C)C(=O)N[C@@H](Cc5c[nH]c6ccccc56)C(=O)N[C@@H](CCCNC(=N)N)C(=O)N[C@@H](CC(C)C)C(=O)N[C@@H](CC(C)C)C(=O)N[C@@H](Cc5c[nH]c6ccccc56)C(=O)N[C@@H](CCCCN)C(=O)N[C@@H](C)C(=O)NCCS)CC[C@]4(C)[C@H]3CC[C@]12C` [CADY-S] (HELM PEPTIDE1{[CC(C)CCC[C@@H](C)[C@H]1CC[C@H]2[C@@H]3CC=C4C[C@@H](OC(=O)[*:2])CC[C@]4(C)[C@H]3CC[C@]12C].G.L.W.R.A.L.W.R.L.L.R.S.L.W.R.L.L.W.K.A.[SCCN[*:1]]}$$$$V2.0) the tumor growth [3] was “fully abolish the tumor growth” and the EC50 (HS-68 and Hela cells; complexed with cargo (ratio 1/20), MTT, read-out: complexed EC50) was 1000 µM.
